# Values quoted from earlier work, collected in article PMC3901259, “Characterisation of the Metabolites of 1,8-Cineole Transferred into Human Milk: Concentrations and Ratio of Enantiomers” (Metabolites, 2013).
# Like-named read-outs stand apart in the source and are kept apart here.
# Assays:
# rats = test system: rats; design: method as in PMID 6068552; conditions: cited from earlier work
# [1] = design: method as in PMID 22405404; conditions: cited from earlier work
smiles,measurement,setting,value
"CC12CCC(CC1)C(C)(C)O2 [1,8-cineole, 1,8-Cineole]",acute oral LD50,rats,2.5 g/kg bodyweight
same,"Concentration of 1,8-cineole in human milk","[1]; sample A-1a (no odour), beyond calibration range, approximation",2.43 µg/kg
same,"1,8-cineole: concentration calculated with the last calibration point (limit in parentheses)",[1]; sample A-1a (no odour),< 13.65 µg/kg
same,"Concentration of 1,8-cineole in human milk",[1]; sample A-1b (odour yes),134.72 µg/kg
same,"Concentration of 1,8-cineole in human milk",[1]; sample B-1 (odour yes),399.39 µg/kg
same,"Concentration of 1,8-cineole in human milk",[1]; sample B-2a (no odour),0.98 µg/kg
same,"Concentration of 1,8-cineole in human milk",[1]; sample B-2b (odour yes),70.97 µg/kg
same,"Concentration of 1,8-cineole in human milk",[1]; sample B-2c (no odour),14.82 µg/kg
same,"Concentration of 1,8-cineole in human milk",[1]; sample C (no odour),13.56 µg/kg
same,"Concentration of 1,8-cineole in human milk","[1]; sample D-1 (no odour), beyond calibration range, approximation",5.75 µg/kg
same,"1,8-cineole: concentration calculated with the last calibration point (limit in parentheses)",[1]; sample D-1 (no odour),< 10.59 µg/kg
same,"Concentration of 1,8-cineole in human milk",[1]; sample D-2 (odour yes),226.09 µg/kg
same,"Concentration of 1,8-cineole in human milk","[1]; sample E-1 (no odour), beyond calibration range, approximation",3.19 µg/kg
same,"1,8-cineole: concentration calculated with the last calibration point (limit in parentheses)",[1]; sample E-1 (no odour),< 13.18 µg/kg
same,"Concentration of 1,8-cineole in human milk",[1]; sample E-2 (odour yes),504.93 µg/kg
same,"Concentration of 1,8-cineole in human milk","[1]; sample F (no odour), two capsules, beyond calibration range, approximation",20.23 µg/kg
same,"1,8-cineole: concentration calculated with the last calibration point (limit in parentheses)","[1]; sample F (no odour), two capsules",< 26.14 µg/kg
same,"Concentration of 1,8-cineole in human milk",[1]; sample G (odour yes),194.46 µg/kg
